ChEMBL document CHEMBL3988442, “University of Dundee, Small-Polar-MMV Screening Library” (2021)
Where “and” joins values, the source holds several entries; their conditions need not be identical. Equal values may be shown once.

Tests used:
[1] = target: T1, Tyrosyl-tRNA synthetase, putative (Trypanosoma cruzi (strain CL Brener), UniProt Q4DSP6); assay: Trypanosoma cruzi tyrosyl tRNA synthetase (TcYRS) _High Tyrosine SOP; format: functional
T1 sequence (Q4DSP6 whole entry): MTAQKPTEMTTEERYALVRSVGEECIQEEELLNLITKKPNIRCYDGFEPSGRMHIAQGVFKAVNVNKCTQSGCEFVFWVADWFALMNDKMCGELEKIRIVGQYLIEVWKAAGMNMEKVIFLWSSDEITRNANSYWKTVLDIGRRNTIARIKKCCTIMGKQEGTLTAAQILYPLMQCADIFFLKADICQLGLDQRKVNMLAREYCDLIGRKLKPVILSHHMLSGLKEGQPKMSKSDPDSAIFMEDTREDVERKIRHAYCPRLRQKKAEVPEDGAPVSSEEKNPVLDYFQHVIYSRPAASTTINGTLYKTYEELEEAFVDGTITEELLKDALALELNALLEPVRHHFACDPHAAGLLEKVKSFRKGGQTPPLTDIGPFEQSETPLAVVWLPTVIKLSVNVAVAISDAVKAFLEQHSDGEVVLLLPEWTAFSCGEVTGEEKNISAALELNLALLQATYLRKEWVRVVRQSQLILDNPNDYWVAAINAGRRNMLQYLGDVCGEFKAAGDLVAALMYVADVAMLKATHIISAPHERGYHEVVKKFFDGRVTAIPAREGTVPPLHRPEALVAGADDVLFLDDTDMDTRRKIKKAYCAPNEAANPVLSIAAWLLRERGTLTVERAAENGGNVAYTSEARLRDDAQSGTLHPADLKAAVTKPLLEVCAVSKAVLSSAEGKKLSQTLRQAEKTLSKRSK

[2] = target: T1, Tyrosyl-tRNA synthetase, putative; assay: Trypanosoma cruzi tyrosyl tRNA synthetase (TcYRS) SOP; format: functional
[3] = target: Protein translocase subunit SecA (Escherichia coli (strain K12), UniProt P10408); assay: Assay to Identify E. coli SecA ATPase Inhibitors; format: functional
[4] = target: T2, Shiga toxin 2 (Escherichia coli O157:H7, UniProt P09385+P09386); assay: E. coli 0.157:H7 Shiga Toxin SOP - stx2 screening assay; format: functional
T2 sequence (P09385 whole entry): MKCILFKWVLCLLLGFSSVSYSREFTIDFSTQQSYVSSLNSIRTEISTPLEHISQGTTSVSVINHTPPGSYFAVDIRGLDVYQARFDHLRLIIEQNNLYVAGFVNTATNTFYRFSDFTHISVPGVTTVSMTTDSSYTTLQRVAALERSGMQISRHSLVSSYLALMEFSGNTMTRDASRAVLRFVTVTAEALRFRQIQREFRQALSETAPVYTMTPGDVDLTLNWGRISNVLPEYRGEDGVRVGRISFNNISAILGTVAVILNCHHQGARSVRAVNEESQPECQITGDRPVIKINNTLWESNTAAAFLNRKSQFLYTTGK
T2 sequence (P09386 whole entry): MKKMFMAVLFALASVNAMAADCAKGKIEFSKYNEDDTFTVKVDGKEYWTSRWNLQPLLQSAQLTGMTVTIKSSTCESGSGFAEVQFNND

[5] = test system: Leishmania donovani; assay: Leishmania intramacrophage assay; format: functional, organism-based; settings: Leishmania donovani
[6] = target: Polyketide synthase Pks13 (Mycobacterium tuberculosis (strain ATCC 25618 / H37Rv), UniProt I6X8D2); assay: Mycobacterium tuberculosis Polyketide synthase 13 Thioesterase (PKS13); format: functional
[7] = target: Chromo domain-containing protein 1 (Saccharomyces cerevisiae (strain ATCC 204508 / S288c) (Baker's yeast), UniProt P32657); assay: ScCHD-1 Enzyme Inhibition Assay; format: functional
[8] = target: T3, Proteasome subunit beta (Trypanosoma cruzi, UniProt O96673); assay: Trypanosoma cruzi proteasome chymotrypsin-like activity (TcProtChymo) assay.; format: functional
T3 sequence (O96673 whole entry): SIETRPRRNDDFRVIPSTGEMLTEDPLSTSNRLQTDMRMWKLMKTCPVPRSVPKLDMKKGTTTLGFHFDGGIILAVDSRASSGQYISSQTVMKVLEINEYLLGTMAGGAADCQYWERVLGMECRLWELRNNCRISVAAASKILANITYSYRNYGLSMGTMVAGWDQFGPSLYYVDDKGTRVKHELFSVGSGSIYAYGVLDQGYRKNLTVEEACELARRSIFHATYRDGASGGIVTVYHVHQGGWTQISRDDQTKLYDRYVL

[9] = Trypanosoma cruzi proteasome luciferase counter-screen; format: functional, N/A
[10] = target: Lysine--tRNA ligase (Plasmodium falciparum (isolate 3D7), UniProt Q8IDJ8); assay: Pf-KRS-1 (Lysyl-RNA Synthetase-1, KRS-1, cytosolic KRS) from Plasmodium falciparum. Inhibitor assay, 384 well plate, luminescence read.; format: functional
[11] = target: T4, Histidine--tRNA ligase (Leishmania infantum, UniProt A4I591); assay: Leishmania infantum Histidine tRNA synthetase (LdHisRS); format: functional
T4 sequence (A4I591 whole entry): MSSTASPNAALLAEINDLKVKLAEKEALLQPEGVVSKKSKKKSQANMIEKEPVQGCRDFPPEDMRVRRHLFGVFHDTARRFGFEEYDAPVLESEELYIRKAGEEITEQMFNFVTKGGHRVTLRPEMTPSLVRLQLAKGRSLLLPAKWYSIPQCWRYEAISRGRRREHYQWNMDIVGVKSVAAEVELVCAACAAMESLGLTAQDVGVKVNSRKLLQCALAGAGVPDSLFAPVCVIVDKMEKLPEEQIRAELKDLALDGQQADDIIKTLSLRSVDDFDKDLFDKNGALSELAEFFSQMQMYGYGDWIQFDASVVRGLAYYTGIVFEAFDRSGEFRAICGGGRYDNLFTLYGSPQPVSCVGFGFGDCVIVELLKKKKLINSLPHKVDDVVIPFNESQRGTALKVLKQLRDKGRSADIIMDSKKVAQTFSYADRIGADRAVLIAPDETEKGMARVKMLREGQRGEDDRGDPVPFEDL

[12] = To identify inhibition of the IFN signalling (Jak-Stat) pathway via expression of an eGFP reporter gene under the control of an IFN-stimulated response element (ISRE) containing MxA promoter.; format: functional, Homo sapiens
[13] = In vitro enzyme assay to detect hydrolysis of chlorophenol red-beta-D-[…] directly proportional to the number of Toxoplasma stably expressing beta-galactosidase; format: functional, organism-based, Toxoplasma gondii; settings: Toxoplasma gondii
[14] = microbe, parasite or virus in culture; settings: Mycobacterium tuberculosis, 96 h, read-out: pIC50 (converted)
[15] = microbe, parasite or virus in culture; settings: Mycobacterium tuberculosis, 72 h, read-out: pIC50 (converted)
[16] = target: T5, Histidine--tRNA ligase (Trypanosoma cruzi (strain CL Brener), UniProt Q4DA54); assay: Trypanosoma cruzi histidyl tRNA synthetase (Tc-HisRS); format: functional
T5 sequence (Q4DA54 whole entry): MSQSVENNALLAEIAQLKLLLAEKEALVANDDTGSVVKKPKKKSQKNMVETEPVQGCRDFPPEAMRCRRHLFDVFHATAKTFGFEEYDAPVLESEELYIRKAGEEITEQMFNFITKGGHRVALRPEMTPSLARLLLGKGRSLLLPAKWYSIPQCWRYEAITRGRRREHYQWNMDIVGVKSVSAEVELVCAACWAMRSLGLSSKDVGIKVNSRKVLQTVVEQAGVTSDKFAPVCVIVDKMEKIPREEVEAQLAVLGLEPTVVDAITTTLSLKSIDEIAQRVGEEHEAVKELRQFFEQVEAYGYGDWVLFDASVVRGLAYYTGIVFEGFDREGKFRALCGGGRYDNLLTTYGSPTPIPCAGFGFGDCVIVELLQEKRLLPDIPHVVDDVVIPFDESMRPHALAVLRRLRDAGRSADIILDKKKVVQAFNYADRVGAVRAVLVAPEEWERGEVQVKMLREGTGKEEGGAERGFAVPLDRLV

[17] = test system: Plasmodium falciparum; assay: Calibr Malaria Delayed Death Assay SOP; format: functional, organism-based

Sequence of Chromo domain-containing protein 1 (P32657 whole entry, the tested form may be a part): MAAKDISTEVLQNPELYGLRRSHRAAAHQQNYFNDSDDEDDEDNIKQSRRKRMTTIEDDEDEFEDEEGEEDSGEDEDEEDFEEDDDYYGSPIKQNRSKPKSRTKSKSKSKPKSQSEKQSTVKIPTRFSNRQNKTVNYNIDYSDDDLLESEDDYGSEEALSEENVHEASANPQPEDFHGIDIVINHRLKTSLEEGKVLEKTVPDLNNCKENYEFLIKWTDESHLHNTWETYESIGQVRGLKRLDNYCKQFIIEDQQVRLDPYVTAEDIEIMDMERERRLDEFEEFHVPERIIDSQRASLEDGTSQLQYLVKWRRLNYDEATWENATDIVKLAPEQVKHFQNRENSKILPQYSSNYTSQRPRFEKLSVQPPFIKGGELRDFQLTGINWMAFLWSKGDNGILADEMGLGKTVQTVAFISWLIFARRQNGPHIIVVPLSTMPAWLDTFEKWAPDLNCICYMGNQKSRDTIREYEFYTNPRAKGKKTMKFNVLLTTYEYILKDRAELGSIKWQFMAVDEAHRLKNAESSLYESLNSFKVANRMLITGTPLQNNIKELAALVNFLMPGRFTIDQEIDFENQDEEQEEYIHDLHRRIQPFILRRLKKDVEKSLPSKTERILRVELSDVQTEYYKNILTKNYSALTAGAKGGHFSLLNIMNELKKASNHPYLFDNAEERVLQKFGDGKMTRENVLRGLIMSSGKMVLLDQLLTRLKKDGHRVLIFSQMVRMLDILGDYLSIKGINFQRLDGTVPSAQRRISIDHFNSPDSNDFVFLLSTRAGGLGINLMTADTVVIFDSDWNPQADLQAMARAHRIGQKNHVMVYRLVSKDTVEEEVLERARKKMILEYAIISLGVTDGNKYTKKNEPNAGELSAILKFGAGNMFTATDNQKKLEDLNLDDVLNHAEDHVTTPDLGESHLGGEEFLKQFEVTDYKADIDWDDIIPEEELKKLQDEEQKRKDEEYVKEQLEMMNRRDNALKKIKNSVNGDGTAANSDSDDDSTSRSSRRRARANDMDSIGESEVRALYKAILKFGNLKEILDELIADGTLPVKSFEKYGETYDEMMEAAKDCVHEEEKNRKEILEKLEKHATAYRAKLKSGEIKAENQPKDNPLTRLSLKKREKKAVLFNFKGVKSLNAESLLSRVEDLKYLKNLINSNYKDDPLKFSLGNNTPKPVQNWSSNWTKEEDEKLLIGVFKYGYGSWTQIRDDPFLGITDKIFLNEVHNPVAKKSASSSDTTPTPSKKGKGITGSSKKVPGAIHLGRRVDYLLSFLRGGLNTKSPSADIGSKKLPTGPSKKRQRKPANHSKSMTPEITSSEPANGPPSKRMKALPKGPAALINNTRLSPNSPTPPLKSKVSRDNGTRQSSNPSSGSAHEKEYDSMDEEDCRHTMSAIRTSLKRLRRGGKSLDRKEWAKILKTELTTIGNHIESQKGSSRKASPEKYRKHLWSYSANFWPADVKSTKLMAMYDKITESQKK
Sequence of Polyketide synthase Pks13 (I6X8D2 whole entry, the tested form may be a part): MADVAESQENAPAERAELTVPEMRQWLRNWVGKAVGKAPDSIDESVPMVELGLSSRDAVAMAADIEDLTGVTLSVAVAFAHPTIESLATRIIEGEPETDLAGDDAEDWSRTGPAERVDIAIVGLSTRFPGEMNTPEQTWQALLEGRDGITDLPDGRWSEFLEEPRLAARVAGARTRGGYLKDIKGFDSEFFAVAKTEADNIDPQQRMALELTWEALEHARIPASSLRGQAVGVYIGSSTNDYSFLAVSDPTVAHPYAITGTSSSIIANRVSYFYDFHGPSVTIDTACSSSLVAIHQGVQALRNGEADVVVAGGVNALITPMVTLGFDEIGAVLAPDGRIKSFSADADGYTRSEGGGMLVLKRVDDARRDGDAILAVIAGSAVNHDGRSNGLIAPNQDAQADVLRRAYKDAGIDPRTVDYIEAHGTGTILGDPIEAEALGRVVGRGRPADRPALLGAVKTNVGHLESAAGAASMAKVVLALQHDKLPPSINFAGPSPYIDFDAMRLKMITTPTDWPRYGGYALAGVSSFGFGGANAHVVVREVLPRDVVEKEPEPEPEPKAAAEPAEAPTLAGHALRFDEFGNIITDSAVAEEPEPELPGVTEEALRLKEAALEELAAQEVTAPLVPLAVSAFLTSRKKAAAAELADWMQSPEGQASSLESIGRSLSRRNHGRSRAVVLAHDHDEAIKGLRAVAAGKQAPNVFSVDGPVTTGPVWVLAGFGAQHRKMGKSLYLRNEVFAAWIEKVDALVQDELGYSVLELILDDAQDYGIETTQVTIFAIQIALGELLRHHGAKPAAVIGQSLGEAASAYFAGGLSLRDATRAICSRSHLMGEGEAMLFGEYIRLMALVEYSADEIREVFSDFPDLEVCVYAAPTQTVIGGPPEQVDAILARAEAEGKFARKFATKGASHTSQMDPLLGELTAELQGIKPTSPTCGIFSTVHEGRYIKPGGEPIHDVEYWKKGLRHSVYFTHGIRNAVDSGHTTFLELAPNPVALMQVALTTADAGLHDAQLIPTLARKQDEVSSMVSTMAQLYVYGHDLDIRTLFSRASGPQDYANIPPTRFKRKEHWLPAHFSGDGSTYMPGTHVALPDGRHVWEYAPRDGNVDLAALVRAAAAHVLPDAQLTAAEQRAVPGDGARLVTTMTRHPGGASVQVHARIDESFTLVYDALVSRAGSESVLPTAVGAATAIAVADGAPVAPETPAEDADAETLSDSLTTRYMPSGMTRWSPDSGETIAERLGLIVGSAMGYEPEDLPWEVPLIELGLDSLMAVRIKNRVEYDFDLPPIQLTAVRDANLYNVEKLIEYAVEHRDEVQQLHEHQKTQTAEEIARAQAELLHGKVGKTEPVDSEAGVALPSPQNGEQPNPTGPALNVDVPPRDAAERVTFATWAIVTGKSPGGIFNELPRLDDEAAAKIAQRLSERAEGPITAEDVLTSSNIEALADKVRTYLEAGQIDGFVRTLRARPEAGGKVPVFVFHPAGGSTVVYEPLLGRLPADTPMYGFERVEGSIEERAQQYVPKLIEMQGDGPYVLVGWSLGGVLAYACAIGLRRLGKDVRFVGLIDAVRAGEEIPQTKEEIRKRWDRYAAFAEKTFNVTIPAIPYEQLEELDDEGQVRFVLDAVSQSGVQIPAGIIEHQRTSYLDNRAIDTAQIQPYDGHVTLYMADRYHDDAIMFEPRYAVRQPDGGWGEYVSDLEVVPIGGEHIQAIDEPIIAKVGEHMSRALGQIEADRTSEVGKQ
Sequence of Lysine--tRNA ligase (Q8IDJ8 whole entry): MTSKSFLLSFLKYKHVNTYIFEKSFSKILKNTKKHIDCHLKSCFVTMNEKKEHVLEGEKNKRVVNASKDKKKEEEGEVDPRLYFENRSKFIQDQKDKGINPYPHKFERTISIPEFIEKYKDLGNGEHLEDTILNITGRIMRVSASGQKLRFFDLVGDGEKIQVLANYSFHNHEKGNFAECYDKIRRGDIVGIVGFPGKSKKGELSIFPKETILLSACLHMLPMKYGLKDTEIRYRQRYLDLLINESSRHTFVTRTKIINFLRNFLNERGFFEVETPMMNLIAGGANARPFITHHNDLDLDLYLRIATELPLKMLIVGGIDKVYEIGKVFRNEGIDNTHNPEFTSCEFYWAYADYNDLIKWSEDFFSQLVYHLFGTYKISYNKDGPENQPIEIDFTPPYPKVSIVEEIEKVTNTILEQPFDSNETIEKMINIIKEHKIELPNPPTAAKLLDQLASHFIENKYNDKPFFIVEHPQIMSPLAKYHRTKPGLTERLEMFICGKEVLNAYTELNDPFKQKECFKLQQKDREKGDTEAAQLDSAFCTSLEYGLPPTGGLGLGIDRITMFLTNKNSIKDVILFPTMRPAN
Sequence of Protein translocase subunit SecA (P10408 whole entry): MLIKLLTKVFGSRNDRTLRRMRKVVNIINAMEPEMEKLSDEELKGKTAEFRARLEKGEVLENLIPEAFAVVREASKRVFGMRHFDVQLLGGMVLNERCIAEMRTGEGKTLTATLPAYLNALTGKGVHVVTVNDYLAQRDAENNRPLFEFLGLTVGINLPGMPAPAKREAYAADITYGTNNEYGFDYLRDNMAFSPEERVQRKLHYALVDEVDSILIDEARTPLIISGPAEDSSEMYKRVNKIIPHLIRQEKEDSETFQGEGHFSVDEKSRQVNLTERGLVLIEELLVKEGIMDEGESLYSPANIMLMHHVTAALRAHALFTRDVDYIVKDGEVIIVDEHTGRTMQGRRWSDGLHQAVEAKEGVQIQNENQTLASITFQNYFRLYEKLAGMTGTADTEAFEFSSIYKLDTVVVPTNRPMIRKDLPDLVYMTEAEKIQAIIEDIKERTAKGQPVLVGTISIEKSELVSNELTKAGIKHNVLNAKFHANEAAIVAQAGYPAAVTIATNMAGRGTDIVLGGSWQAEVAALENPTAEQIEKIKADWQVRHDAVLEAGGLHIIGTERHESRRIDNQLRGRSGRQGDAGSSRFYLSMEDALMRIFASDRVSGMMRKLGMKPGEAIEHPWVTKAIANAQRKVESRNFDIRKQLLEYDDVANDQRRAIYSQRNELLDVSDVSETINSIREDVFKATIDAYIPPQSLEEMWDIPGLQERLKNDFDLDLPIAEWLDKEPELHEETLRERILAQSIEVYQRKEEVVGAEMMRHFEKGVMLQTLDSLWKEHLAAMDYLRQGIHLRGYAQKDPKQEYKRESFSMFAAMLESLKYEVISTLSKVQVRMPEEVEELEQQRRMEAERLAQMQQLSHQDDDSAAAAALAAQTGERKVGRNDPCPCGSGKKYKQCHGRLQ

SMILES	IC50 [1]	IC50 [2]	IC50 [4]	also measured
COc1ccc(C2SC(C)=Nc3c2c(=O)[nH]n3C2CCCCC2)cc1O (stereo not drawn)	> 100 µM	> 100 µM		
CC1(C)OCC(CNC(=O)c2cnn(-c3ccc(Cl)cc3)c2N)O1 (stereo not drawn)			> 100 µM	IC50 [3]: > 100 µM
CC(=O)N1CCN(c2ccc3ccc(C(=O)NC4CCCC4)cn23)CC1	41.1 µM and > 100 µM	> 100 µM		
O=C(NC1CC1)c1ccc2ccc(N3CCN(CC4CC4)CC3)n2c1	41.1 µM and > 100 µM	> 100 µM		IC50 [5]: > 50.1 µM
CN(CC1CC1)c1ccc2ccc(C(=O)NCCN3CCOCC3)cn12	94.4 µM and > 100 µM	> 100 µM		IC50 [5]: > 50.1 µM
O=C(C1=CCCC1)N1C[C@H](Oc2cccnc2)[C@H]2OCCC[C@H]21	> 100 µM	> 100 µM		
O=C(NCc1ccccc1)N1CCC2(CC(=O)N(c3ccsc3)C2)C1 (stereo not drawn)	> 100 µM	> 100 µM		
CNC(=O)[C@H]1CCS(=O)(=O)[C@@H]2CN(Cc3ccc(OC)cc3)C[C@H]12	> 100 µM	> 100 µM		
COCCN1C[C@@H]2CN(c3ncccn3)C[C@@H]2C1=O	> 100 µM	> 100 µM		IC50 [6]: > 100 µM; IC50 [7]: > 29.5 µM
CN1CCc2nc(C3CCN(C(=O)CCC4CCCC4)CC3)ncc2C1	45.5 µM and 43.7 µM	46.4 µM and 43.1 µM		IC50 [8]: > 100 µM; pIC50 [9]: < 4
Cc1cc(C)n(C2CN(CC(=O)N(C)Cc3ccc(C)o3)C2)n1	79.3 µM and 74.7 µM	75.8 µM and 72.1 µM		
Cc1cc(-c2nn(C)c(Cl)c2CN2Cc3ccccc3C(O)C2)no1 (stereo not drawn)			41.5 µM and > 100 µM	IC50 [10]: > 50.1 µM; IC50 [11]: 16.7 µM and 20.3 µM
CNC(=O)C1(c2cnccn2)CCCN1C(=O)c1ccn(C)n1 (stereo not drawn)	> 100 µM	> 100 µM		
CN(C)S(=O)(=O)N1CCCC(c2cccc(Cc3ccccc3)n2)C1 (stereo not drawn)			> 100 µM	pIC50 [12]: 4.718 and 4.613
NC[C@H]1CC[C@H](C(NC(=O)c2cccc(F)c2)c2ccccn2)CC1 (stereo partly drawn)	> 100 µM and 87.7 µM	76 µM and > 100 µM		IC50 [11]: 51 µM and 44.2 µM
Fc1cccc(Oc2ccc(CNCC3CNc4ccnn4C3)cn2)c1 (stereo not drawn)	> 100 µM	> 100 µM		IC50 [11]: > 100 µM

SMILES	IC50 [1]	IC50 [2]	IC50 [4]	also measured
Cc1cccnc1NC(=O)NCc1ccc(N2CCNC(=O)C2)cc1	52 µM and 31.6 µM	53.1 µM and 32.9 µM		IC50 [11]: 19.7 µM and 15 µM
COc1ccc(C)cc1CN(C)Cc1nc2c(cnn2C)c(=O)[nH]1			> 100 µM	
CCOc1ccnc(N2CCN(C(=O)c3cccc(C#N)c3)CC2)n1			> 100 µM	
CN(CCCOc1ccccc1)C(=O)CN1CCc2cncnc2C1	> 100 µM	> 100 µM		IC50 [11]: 44 µM and 39.2 µM
Cc1noc(NC(=O)c2ccc(OC(F)(F)F)cc2)n1			> 100 µM	IC50 [13]: 4.96 µM; IC50 [8]: 4.36 µM and 4.71 µM; pIC50 [9]: 5.158 and 4.98; pIC50 [12]: 5.092; IC50 [14]: 36.6 µM; IC50 [15]: 20 µM
Cc1noc(NC(=O)c2ccc(Br)cc2)n1			> 100 µM	IC50 [13]: 9.76 µM; pIC50 [12]: 4.648 and 4.809
Cc1noc(NC(=O)c2ccc(Br)s2)n1			> 100 µM	IC50 [14]: 42.5 µM; IC50 [15]: 32.8 µM
CC(C)(C)NC(=O)NC(=O)CNC(C)(C)c1ccc2c(c1)OCCO2			> 100 µM	
Fc1ccc(OCc2noc(CN3CCc4cncnc4C3)n2)cc1	> 100 µM	> 100 µM		IC50 [11]: 49.6 µM and 74.9 µM
N#Cc1ccc(NCCNc2ccc(C(F)(F)F)cn2)nc1			> 100 µM	IC50 [13]: 22.7 µM; pIC50 [12]: 5.715
COc1c(CNC(c2ccc(F)cc2)C(C)(C)C)c(C)nn1C (stereo not drawn)			> 100 µM	
O=S(=O)(CCN1CCOC(Cn2cccn2)C1)C(F)(F)F (stereo not drawn)			15 µM and 14 µM	IC50 [7]: > 29.5 µM; IC50 [14]: > 50.1 µM; IC50 [15]: 28.9 µM
CN(Cc1ccsc1)C(=O)CS(=O)(=O)Cc1ccc(Cl)c(Cl)c1			> 100 µM	
O=C(O)C(F)(F)F.c1cnc(N2CCC3(CC2)CN(CC2CC2)c2ccccc23)nc1	19.4 µM and 17.9 µM	16.3 µM and 16.2 µM		IC50 [16]: 32.3 µM and 19.9 µM; IC50 [11]: 9.51 µM and 9.98 µM; pIC50 [17]: 6.09; IC50 ([17]; Plasmodium falciparum): 1.26 µM
CC(C)NC(=O)N1CCN(CC2CC2)CC2(CC(=O)N(C)C2)C1 (stereo not drawn)	> 100 µM	> 100 µM		
